The text below walks through data of ChEMBL document CHEMBL3758156, “The importance of triazole scaffold in the development of anticonvulsant agents” (Eur J Med Chem, 2016).

As a reminder, the inhibition in vivo is the relative decrease from the control value, in per cent. For orientation: ED50 means the midpoint of the dose-response relation. The term TD50 denotes the dose at which the toxic effect under study appears in half of the subjects.

In series [1] the test system is Mus musculus. Briefly: Anticonvulsant activity in mouse assessed as protection against maximal electroshock-induced seizures at 50 and 100 mg/kg by MES test. The series is classed as functional. In general terms: Protection in the maximal electroshock model is a classic sign of anticonvulsant action.
The nature of series [2]: Protective index, ratio of TD50 for neurotoxicity in ip dosed Swiss mouse to ED50 for anticonvulsant activity in ip dosed Swiss mouse. The class given is toxicity, organism-based. The following applies: in vivo, read-out: Ratio TD50/ED50.
Series [3] has as its system Mus musculus. Kind of series: Anticonvulsant activity in lithium-pilocarpine NMRI mouse model assessed as inhibition of pilocarpine-induced seizures at 10 mg/kg, ip administered 30 mins prior to pilocarpine injection measured for 60 mins. The series is classed as functional.
The subject of series [4] is Mus musculus. Briefly: Anticonvulsant activity in po dosed CD1 mouse assessed as protection against strychnine-induced seizures administered 0.5 hr prior to strychnine challenge. The class given is functional.
In series [5] the test system is Mus musculus. Briefly: Anticonvulsant activity in ip dosed Swiss mouse assessed as protection against PTZ-induced seizures administered 30 mins prior to PTZ challenge. The class given is functional.
Series [6] relates to Mus musculus. Kind of series: Anticonvulsant activity in ip dosed NMRI mouse assessed as protection against PTZ-induced seizures administered 30 mins prior to PTZ injection measured after 30 mins. The class given is functional.
In series [7] the test system is Mus musculus. Kind of series: Anticonvulsant activity in ip dosed Kunming mouse assessed as protection against maximal electroshock-induced seizures after 30 mins by MES test. The class given is functional. To be noted: 0.5 h.
A short description of series [8]: Protective index, ratio of TD50 for neurotoxicity in ip dosed Kunming mouse to ED50 for anticonvulsant activity in ip dosed Kunming mouse. The series is classed as toxicity, organism-based. The following applies: in vivo, read-out: PI.
A short description of series [9]: Protective index, ratio of TD50 for neurotoxicity in ip dosed C57BL/6 mouse to ED50 for anticonvulsant activity in ip dosed C57BL/6 mouse. To be noted: in vivo. The class given is toxicity, organism-based, C57B/6.
In series [10] the test system is Mus musculus. Briefly: Anticonvulsant activity in ip dosed C57BL/6 mouse assessed as protection against maximal electroshock-induced seizures measured at 30 mins interval over 4 hrs by MES test. The class given is functional. To be noted: C57B/6, ip.
For series [11], the system named is Mus musculus. Kind of series: Anticonvulsant activity in ip dosed Kunming mouse assessed as protection against maximal electroshock-induced seizures […]. The class given is functional.
Series [12] deals with Mus musculus. Kind of series: Anticonvulsant activity in ip dosed C57BL/6 mouse assessed as protection against maximal electroshock-induced seizures measured at 5 secs intervals over 4 hrs by MES test. The class given is functional. The following applies: C57B/6, ip.
The subject of series [13] is Mus musculus. Briefly: Anticonvulsant activity in ip dosed Swiss mouse assessed as protection against maximal electroshock-induced seizures administered 30 mins prior to electrical stimulation by MES test. The series is classed as functional.
Series [14] in a line: Protective index, ratio of TD50 for neurotoxicity in ip dosed Swiss mouse by rotarod test to ED50 for anticonvulsant activity in ip dosed Swiss mouse by MES test. The class given is toxicity, organism-based. To be noted: in vivo, read-out: Ratio TD50/ED50. (In the rotarod test animals must keep their balance on a rotating rod.)
The nature of series [15]: Neurotoxicity in ip dosed C57BL/6 mouse after 30 mins by rotarod test. The series is classed as toxicity, organism-based, C57B/6. To be noted: in vivo.
Series [16] has as its system Mus musculus. Kind of series: Anticonvulsant activity in albino Swiss mouse assessed as protection against PTZ-induced seizures at 100 mg/kg, ip administered 2 hrs prior to PTZ injection measured after 60 mins. The series is classed as functional.
Series [17] concerns Mus musculus. Briefly: Anticonvulsant activity in BALB/c mouse assessed as protection against maximal electroshock-induced seizures at 30 mg/kg, po after 1 hr by MES test. The class given is functional.
The nature of series [18]: Neurotoxicity in ip dosed Kunming mouse after 15 mins by rotarod test. The class given is toxicity, organism-based. To be noted: in vivo.
Series [19] concerns Mus musculus. Briefly: Anticonvulsant activity in NMRI mouse assessed as protection against maximal electroshock-induced seizures at 100 mg/kg, ip by MES test. The class given is functional.
For series [20], the system named is Mus musculus. Briefly: Anticonvulsant activity in NMRI mouse assessed as protection against PTZ-induced seizures at 100 mg/kg, ip administered 30 mins prior to PTZ injection measured for 30 mins. The class given is functional.
The test system of series [21] is Mus musculus. Briefly: Anticonvulsant activity in ip dosed Swiss mouse assessed as protection against strychnine-induced tonic extensor after 30 mins. To be noted: 0.5 h. The series is classed as functional.

As to `CCn1c(S)nnc1-c1sc(-c2ccccc2)nc1C`, the Activity in the series on Mus musculus [1] stood at 80%. Consider `Fc1ccc(-n2c(-c3cccc(Cl)c3)n[nH]c2=S)cc1`, for which the selectivity ratio in series [2] was found to be 3.9.

Regarding `O=C1c2ccccc2OCC1n1cncn1` (stereo unspecified), in the series with Mus musculus [3], the inhibition in vivo at 10 mg/kg came out at 49%. Consider `Cn1c(-c2ccccc2)nnc1S(C)(=O)=O`, for which the ED50 with Mus musculus [4] turned out to be 7.3 mg/kg; in the series with Mus musculus [5], 55 mg/kg. In the case of `Nc1nnc(-c2ccc(Cl)cc2Oc2ccccc2F)[nH]1`, in the series on Mus musculus [6], the ED50 turned out to be 1.4 mg/kg.

Regarding `CCCCCCCOc1nncn1-c1ccc(OCCCCCC)cc1`, the ED50 in the series on Mus musculus [7] amounted to 37.3 mg/kg. Further, the selectivity ratio in series [8] stood at 11.3. As to `Nc1nnc(-c2ccc(Cl)cc2Oc2ccccc2Cl)[nH]1`, the median effective dose (ED50) in the series on Mus musculus [6] is 12 mg/kg. As to `CCCCCCOc1ccc2c(c1)c(-c1ccccc1)cc1nncn12`, the selectivity ratio in [9] (read-out: PI) was 35.1. Further, the ED50 in the series on Mus musculus [10] came to 6.5 mg/kg. With `Clc1ccc(C2=Nn3cnnc3SC2)cc1`, the selectivity ratio in series [8] was 6.5. Further, the ED50 in the series with Mus musculus [11] turned out to be 40.9 mg/kg.

In the case of `Fc1cccc(C2Cc3nncn3-c3ccccc32)c1` (stereo unspecified), the selectivity ratio in series [9] (read-out: PI) worked out at 3.33. The ED50 was found to be 22 mg/kg with Mus musculus [12] and 27.4 mg/kg with Mus musculus [10]. For `CCCCCCCOc1nn2cnnc2c2ccccc12`, the ED50 with Mus musculus [13] is 11 mg/kg. Also, in series [14], the selectivity ratio is 8. The corresponding values for `Clc1ccc(Oc2nn3cnnc3c3ccccc23)cc1` are 7.1 mg/kg and 5.2.

`Clc1ccc(-c2nn3cnnc3s2)cc1`: the selectivity ratio in series [8] was found to be 10.8. Besides, the ED50 in the series on Mus musculus [11] was 23.7 mg/kg. `CCCCCCCOc1cc(-c2ccccc2)nc2ncnn12`: the ED50 in the series with Mus musculus [11] was determined as 84.9 mg/kg. In turn, `CCCCCCCOc1ccc2c(c1)CCc1nn(C(=O)CC)c(=O)n1-2` showed a TD50 at 0.5 h in series [15] of 318 mg/kg. The selectivity ratio in series [9] (read-out: Ratio TD50/ED50) is 39. Besides, the ED50 in the series with Mus musculus [10] was 8.2 mg/kg.

As to `CC1=NNC(=O)/C1=N\Nc1ccc(-c2n[nH]c(=O)n2-c2ccccc2)cc1`, the Activity with Mus musculus [16] turned out to be 30%.

With `CC1=NNC(=O)/C1=N\Nc1ccc(-c2n[nH]c(=S)n2-c2ccccc2)cc1`, the Activity in the series on Mus musculus [16] worked out at 30%. Consider `Cn1c(SCc2ccccc2)nnc1-c1ccc(N)cc1`, for which the Activity in the series on Mus musculus [17] is on record as 50%. Consider `Fc1ccccc1COc1ccc2c(c1)SCc1nncn1-2`, for which the ED50 in the series with Mus musculus [7] came to 17 mg/kg. Besides, the TD50 at 0.25 h in series [18] was found to be 244 mg/kg. Take `Clc1ccc(-c2nc(Cn3cncn3)cs2)cc1`: the Activity in the series with Mus musculus [19] and with Mus musculus [20] was 100% each time. `Cc1nn2c(C(N)=O)nnc2cc1Cc1c(Cl)cccc1Cl`: the ED50 is 12.5 mg/kg in the series with Mus musculus [13], 62.9 mg/kg with Mus musculus [21] and 91.1 mg/kg with Mus musculus [5].
